Results on 2 molecules are retold here after PMC9485262, “Structural characterization of a soil viral auxiliary metabolic gene product – a functional chitosanase” (Nature Communications, 2022).

One test deals with T1, V-Csn (uncultured phage, UniProt Z9RE59BL32).
T1 construct: model residues 1-224 plus linker GHS; dimer in solution
Briefly: X-ray crystal structure of co-crystal, […] A. To be noted: co-crystallised with about 5 mM chitohexaose, 0.2 M ammonium sulfate, 0.1 M sodium acetate pH 4.6, 30% MMePEG2000; active-site cleft; three of six GlcN residues modelled. In kind it is binding.

Test [1] addresses V-Csn (Viral Chitosanase), soil viral GH75 chitosanase AMG product (soil virus (predicted Proteobacteria phage; forest soil metagenome)). Kind of test: SEC; size exclusion chromatography of purified V-Csn in solution; conditions of this observation are not given (gel filtration in the purification used a Superdex HiLoad 26/60 column).

With `N[C@H]1[C@H](O[C@H]2[C@H](O)[C@@H](N)[C@H](O[C@H]3[C@H](O)[C@@H](N)[C@H](O[C@H]4[C@H](O)[C@@H](N)[C@H](O[C@H]5[C@H](O)[C@@H](N)[C@H](O[C@H]6[C@H](O)[C@@H](N)C(O)O[C@@H]6CO)O[C@@H]5CO)O[C@@H]4CO)O[C@@H]3CO)O[C@@H]2CO)O[C@H](CO)[C@@H](O)[C@@H]1O` (some centres unmarked) [chitohexaose], the “X-ray crystal structure of co-crystal, 1.30 A” value at V-Csn is on record as “gave a complex with the E157Q mutant only”.

Turning to “V-Csn (Viral Chitosanase), soil viral GH75 chitosanase AMG product (enzyme)”, the stoichiometry N – broadly, the number of molecules, sites or subunits per partner or assembly – in test [1] is 2.
